Laboratory results from paper PMC8119466, “A screen of FDA-approved drugs identifies inhibitors of protein tyrosine phosphatase 4A3 (PTP4A3 or PRL-3)” (Scientific Reports, 2021).
Where a name gives a salt, the structure may show the parent alone. Read-outs that look alike come from different tables or passages of the source.

Experiments:
Assay type in all cases: biochemical
[1] = target: T1, recombinant PRL-1 (Homo sapiens, UniProt Q93096); assay: In vitro phosphatase assay (DiFMUP hydrolysis), PRL-1; also: test concentration or dose not given here
T1 construct: 6xHis (N, cleaved yes); made in house; host or cells: E. coli One Shot BL21 Star
T1 sequence (Q93096 1-173): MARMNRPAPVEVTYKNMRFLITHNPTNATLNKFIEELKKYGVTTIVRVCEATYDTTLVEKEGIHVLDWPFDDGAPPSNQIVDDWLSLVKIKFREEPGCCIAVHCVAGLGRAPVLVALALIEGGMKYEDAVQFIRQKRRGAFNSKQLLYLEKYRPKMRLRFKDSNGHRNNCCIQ

[2] = target: T2, recombinant PRL-2 (Homo sapiens, UniProt Q12974); assay: In vitro phosphatase assay (DiFMUP hydrolysis), PRL-2;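 also: PRL-2 activity read as DiFMUP hydrolysis after 20 min at room temperature with drug, enzyme first pre-reduced at 4 °C for 20 min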
T2 construct: 6xHis (N, cleaved yes); made in house; host or cells: E. coli One Shot BL21 Star
T2 sequence (Q12974 1-167): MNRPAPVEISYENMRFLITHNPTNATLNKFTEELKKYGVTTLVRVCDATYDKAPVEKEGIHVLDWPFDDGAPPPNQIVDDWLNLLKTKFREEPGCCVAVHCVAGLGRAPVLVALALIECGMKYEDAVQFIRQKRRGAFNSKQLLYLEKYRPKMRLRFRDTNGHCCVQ

[3] = target: T3, recombinant PRL-3 (Homo sapiens, UniProt O75365); assay: In vitro phosphatase assay (DiFMUP hydrolysis), PRL-3; also: test concentration or dose not given here
T3 construct: 6xHis (N, cleaved yes); made in house; host or cells: E. coli One Shot BL21 Star

[4] = FDA-approved drug screen, compared to DMSO
[5] = FDA-approved drug screen, activity compared to DMSO

T3 sequence (O75365 whole entry): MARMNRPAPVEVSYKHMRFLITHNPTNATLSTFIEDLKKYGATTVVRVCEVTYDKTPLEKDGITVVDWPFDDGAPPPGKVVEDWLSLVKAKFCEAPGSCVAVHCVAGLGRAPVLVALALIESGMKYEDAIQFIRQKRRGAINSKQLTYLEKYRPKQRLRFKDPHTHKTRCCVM

Molecule: Oc1ccc(/C=C/c2cc(O)cc(O)c2)cc1 [Resveratrol]
- % Phosphatase Activity (compared to DMSO) PRL-1 [1, 4]: 107%
- % Phosphatase Activity (compared to DMSO) PRL-2 [2, 4]: 112%
- % Phosphatase Activity (compared to DMSO) PRL-3 [3, 4]: 84%

Molecule: CC1CCc2cc(F)cc3c(=O)c(C(=O)O)cn1c23 (stereo not drawn) [Flumequine]
- % Phosphatase Activity (compared to DMSO) PRL-1 [1, 4]: 122%
- % Phosphatase Activity (compared to DMSO) PRL-2 [2, 4]: 112%
- % Phosphatase Activity (compared to DMSO) PRL-3 [3, 4]: 96%

Molecule: CCOc1cc(N)c(Cl)cc1C(=O)NCC1CN(Cc2ccc(F)cc2)CCO1 (stereo not drawn) [Mosapride Citrate]
- % Phosphatase Activity (compared to DMSO) PRL-1 [1, 4]: 88%
- % Phosphatase Activity (compared to DMSO) PRL-2 [2, 4]: 101%
- % Phosphatase Activity (compared to DMSO) PRL-3 [3, 4]: 57%

Molecule: Nc1ccn([C@@H]2O[C@H](CO)[C@@H](O)C2(F)F)c(=O)n1 [Gemcitabine]
- % Phosphatase Activity (compared to DMSO) PRL-1 [1, 4]: 109%
- % Phosphatase Activity (compared to DMSO) PRL-2 [2, 4]: 100%
- % Phosphatase Activity (compared to DMSO) PRL-3 [3, 4]: 77%

Molecule: Cl.N[C@@H]1C[C@H]1c1ccccc1 (racemic) [Tranylcypromine (2-PCPA) HCl]
- % Phosphatase Activity (compared to DMSO) PRL-1 [1]: 111%
- % Phosphatase Activity (compared to DMSO) PRL-2 [2]: 110%
- % Phosphatase Activity (compared to DMSO) PRL-3 [3]: 87%

Molecule: CCC1(c2ccccc2)C(=O)NCNC1=O [Primidone]
- % Phosphatase Activity (compared to DMSO) PRL-1 [1, 4]: 84%
- % Phosphatase Activity (compared to DMSO) PRL-2 [2, 4]: 93%
- % Phosphatase Activity (compared to DMSO) PRL-3 [3, 4]: 79%

Molecule: CCCc1nc2c(C)cc(-c3nc4ccccc4n3C)cc2n1Cc1ccc(-c2ccccc2C(=O)O)cc1 [Telmisartan]
- % Phosphatase Activity (compared to DMSO) PRL-1 [1, 5]: 86%
- % Phosphatase Activity (compared to DMSO) PRL-2 [2, 5]: 77%
- % Phosphatase Activity (compared to DMSO) PRL-3 [3, 5]: 92%

Molecule: CC(C(=O)O)c1ccc2c(c1)CC(=O)c1ccccc1S2 (stereo not drawn) [Zaltoprofen]
- % Phosphatase Activity (compared to DMSO) PRL-1 [1, 5]: 109%
- % Phosphatase Activity (compared to DMSO) PRL-2 [2, 5]: 113%
- % Phosphatase Activity (compared to DMSO) PRL-3 [3, 5]: 86%

Molecule: CN(C)CCOc1ccc(/C(=C(/CCCl)c2ccccc2)c2ccccc2)cc1 [Toremifene Citrate]
- % Phosphatase Activity (compared to DMSO) PRL-1 [1, 5]: 95%
- % Phosphatase Activity (compared to DMSO) PRL-2 [2, 5]: 105%
- % Phosphatase Activity (compared to DMSO) PRL-3 [3, 5]: 103%

Molecule: C[C@]12CCC(=O)C(O)=C1CC[C@@H]1[C@@H]2CC[C@]2(C)C(=O)CC[C@@H]12 [Formestane]
- % Phosphatase Activity (compared to DMSO) PRL-1 [1]: 102%
- % Phosphatase Activity (compared to DMSO) PRL-2 [2]: 123%
- % Phosphatase Activity (compared to DMSO) PRL-3 [3]: 85%

Molecule: CCOc1ccccc1OC(c1ccccc1)C1CNCCO1.CS(=O)(=O)O (stereo not drawn) [Reboxetine mesylate]
- % Phosphatase Activity (compared to DMSO) PRL-1 [1, 4]: 125%
- % Phosphatase Activity (compared to DMSO) PRL-2 [2, 4]: 118%
- % Phosphatase Activity (compared to DMSO) PRL-3 [3, 4]: 99%

Molecule: CC(C)(Oc1ccc(C(=O)c2ccc(Cl)cc2)cc1)C(=O)O [Fenofibric acid]
- % Phosphatase Activity (compared to DMSO) PRL-1 [1, 4]: 104%
- % Phosphatase Activity (compared to DMSO) PRL-2 [2, 4]: 122%
- % Phosphatase Activity (compared to DMSO) PRL-3 [3, 4]: 109%

Molecule: COc1ccc(C2CNC(=O)C2)cc1OC1CCCC1 (stereo not drawn) [Rolipram]
- % Phosphatase Activity (compared to DMSO) PRL-1 [1, 4]: 99%
- % Phosphatase Activity (compared to DMSO) PRL-2 [2, 4]: 104%
- % Phosphatase Activity (compared to DMSO) PRL-3 [3, 4]: 77%

Molecule: Escin
- % Phosphatase Activity (compared to DMSO) PRL-1 [1, 4]: 72%
- % Phosphatase Activity (compared to DMSO) PRL-2 [2, 4]: 73%
- % Phosphatase Activity (compared to DMSO) PRL-3 [3, 4]: 95%

Molecule: N=C(N)NC(=O)Cc1c(Cl)cccc1Cl [Guanfacine Hydrochloride]
- % Phosphatase Activity (compared to DMSO) PRL-1 [1, 4]: 103%
- % Phosphatase Activity (compared to DMSO) PRL-2 [2, 4]: 84%
- % Phosphatase Activity (compared to DMSO) PRL-3 [3, 4]: 96%
